Assay [1] in a line: Cytotoxicity against phytohaemagglutinin-stimulated human lymphocytes after 3 days by MTT assay. Type of assay: cell-based. Particulars: Lymphocyte, 72 h. Background: Tetrazolium assays rely on reduction of a dye to a coloured formazan, in cell work by metabolically active cells.
Assay [2] relates to HeLa. Briefly: Tumor specificity, ratio of IC50 for human resting and phytohaemagglutinin-stimulated lymphocytes to IC50 for human HeLa cells.
The test system of assay [3] is Plasmodium falciparum. Briefly: Resistance index, ratio of IC50 for chloroquine-resistant Plasmodium falciparum Dd2 to IC50 for chloroquine-sensitive Plasmodium falciparum D10. The class given is functional.
Assay [4] concerns Plasmodium falciparum. In words: Antiplasmodial activity against chloroquine-sensitive Plasmodium falciparum D10. Type of assay: functional, organism-based.
The test system of assay [5] is HeLa. In words: Cytotoxicity against human HeLa cells after 7 days by MTT assay. The class given is functional, cell-based. The following applies: 168 h.
The subject of assay [6] is Plasmodium falciparum. In words: Antiplasmodial activity against chloroquine-resistant Plasmodium falciparum Dd2. Type of assay: functional, organism-based.
Assay [7] in a line: Cytotoxicity against human resting lymphocytes after 3 days by MTT assay. Type of assay: cell-based. Particulars: Lymphocyte, 72 h.

pIC50: −log10 of the molar value. Bounds are passed on as bounds.

In general, pIC50 refers to −log10 of the IC50, conventionally taken in molar units. Low readings indicate a large IC50, high ones a small IC50. `C[C@H]1[C@@H](OC(=O)CCNCCCNc2ccnc3cc(Cl)ccc23)O[C@@H]2O[C@@]3(C)CC[C@H]4[C@H](C)CC[C@@H]1[C@@]24OO3`: the negative-log IC50 (pIC50) in assay [1] was 5.33; with Plasmodium falciparum [4], 7.73; with HeLa [5] it was 5.25; with Plasmodium falciparum [6] it was 7.61; in assay [7] it was 4.67. For the same molecule, the “Ratio IC50” value in the assay with HeLa [2] was 2.4; in the assay on Plasmodium falciparum [3], 1.3.

`C[C@H]1[C@H](OC(=O)CCN2CCCC2)O[C@@H]2O[C@@]3(C)CC[C@H]4[C@H](C)CC[C@@H]1[C@@]24OO3`: in the assay with Plasmodium falciparum [3], the “Ratio IC50” value is on record as 1. The pIC50 with Plasmodium falciparum [4] is 7.95; with Plasmodium falciparum [6], 7.94.

For `C=CC(=O)O[C@H]1O[C@@H]2O[C@@]3(C)CC[C@H]4[C@H](C)CC[C@@H]([C@H]1C)[C@@]24OO3`, the negative-log IC50 (pIC50) in assay [1] was 5.04; in the assay with Plasmodium falciparum [4], 8.12; in the assay on HeLa [5], 5.54; with Plasmodium falciparum [6] it was 7.91; in assay [7] it was 4.52. Moreover, the “Ratio IC50” value was 6.9 in the assay on HeLa [2] and 1.6 with Plasmodium falciparum [3].

Take `C[C@H]1[C@H](OC(=O)CCN2CCOCC2)O[C@@H]2O[C@@]3(C)CC[C@H]4[C@H](C)CC[C@@H]1[C@@]24OO3`: the pIC50 is 4.56 in assay [1]; 8.21 with Plasmodium falciparum [4]; 5.32 in the assay with HeLa [5]; 8.04 in the assay with Plasmodium falciparum [6]; less than 4.30 in assay [7]. The “Ratio IC50” value in the assay with HeLa [2] is 5.7; with Plasmodium falciparum [3], 1.4.

Turning to `NCCNc1ccnc2cc(Cl)ccc12`, the “Ratio IC50” value in the assay with Plasmodium falciparum [3] was found to be 4.9. The pIC50 with Plasmodium falciparum [4] was 6.64; in the assay with HeLa [5] it was 5.14; in the assay with Plasmodium falciparum [6], 5.94.

In the case of `C[C@H]1[C@H](OC(=O)CCN2CCN(c3ccccc3)CC2)O[C@@H]2O[C@@]3(C)CC[C@H]4[C@H](C)CC[C@@H]1[C@@]24OO3`, the pIC50 in assay [1] was 4.56; in the assay with Plasmodium falciparum [4], 8.25; in the assay on HeLa [5], 5.24; in the assay on Plasmodium falciparum [6] it was 8.14; in assay [7], less than 4.30. The “Ratio IC50” value in the assay with HeLa [2] is listed as 4.8; in the assay on Plasmodium falciparum [3], 1.3.

Consider `C[C@H]1[C@@H](OC(=O)CCNCCCCCCNc2ccnc3cc(Cl)ccc23)O[C@@H]2O[C@@]3(C)CC[C@H]4[C@H](C)CC[C@@H]1[C@@]24OO3`, for which the negative-log IC50 (pIC50) in assay [1] was 5.47; in the assay on Plasmodium falciparum [4] it was 7.25; in the assay with HeLa [5] it was 6.43; in the assay on Plasmodium falciparum [6], 7.27; in assay [7], 4.72. Besides, the “Ratio IC50” value is recorded as 30.7 in the assay on HeLa [2] and 0.9 in the assay on Plasmodium falciparum [3].

As for `Clc1ccc2c(N3CCNCC3)ccnc2c1`, the “Ratio IC50” value in the assay with Plasmodium falciparum [3] turned out to be 1.1. In addition, the negative-log IC50 (pIC50) in the assay on Plasmodium falciparum [4] is 5.83; with HeLa [5], 4.56; with Plasmodium falciparum [6], 5.79.

Regarding `C[C@H]1[C@@H](OC(=O)CCNCCNc2ccnc3cc(Cl)ccc23)O[C@@H]2O[C@@]3(C)CC[C@H]4[C@H](C)CC[C@@H]1[C@@]24OO3`, the pIC50 is 4.77 in assay [1]; 7.69 in the assay on Plasmodium falciparum [4]; 5.02 in the assay with HeLa [5]; 7.70 in the assay with Plasmodium falciparum [6]; less than 4.30 in assay [7]. Also, the “Ratio IC50” value came to 1.8 in the assay on HeLa [2] and 1 in the assay with Plasmodium falciparum [3].

Regarding `CC(C)NCCC(=O)O[C@@H]1O[C@@H]2O[C@@]3(C)CC[C@H]4[C@H](C)CC[C@@H]([C@H]1C)[C@@]24OO3`, the “Ratio IC50” value with Plasmodium falciparum [3] was 1.1. Besides, the pIC50 in the assay on Plasmodium falciparum [4] was 7.77; in the assay on HeLa [5], 4.88; in the assay with Plasmodium falciparum [6] it was 7.73.

Regarding `C[C@H]1[C@@H](O)O[C@@H]2O[C@@]3(C)CC[C@H]4[C@H](C)CC[C@@H]1[C@@]24OO3` [ARTENIMOL], the “Ratio IC50” value with Plasmodium falciparum [3] stood at 0.75. Also, the pIC50 in the assay with Plasmodium falciparum [4] is 8.39; in the assay on Plasmodium falciparum [6] it was 8.52.

For the molecule `NCCCCNc1ccnc2cc(Cl)ccc12`, in the assay on Plasmodium falciparum [3], the “Ratio IC50” value stood at 4.7. For the same molecule, the pIC50 in the assay with Plasmodium falciparum [4] is 6.32; in the assay on HeLa [5] it was 4.95; with Plasmodium falciparum [6], 5.64.

In the case of `C[C@H]1[C@H](OC(=O)CCN(C)Cc2ccccc2)O[C@@H]2O[C@@]3(C)CC[C@H]4[C@H](C)CC[C@@H]1[C@@]24OO3`, the pIC50 in assay [1] is 4.60; with Plasmodium falciparum [4], 8.28; in the assay with HeLa [5], 5.35; in the assay with Plasmodium falciparum [6], 8.21; in assay [7], less than 4.30. For the same molecule, the results for the “Ratio IC50” value in the assay on HeLa [2] and with Plasmodium falciparum [3] were 5.6 and 1.2, respectively.

Consider `CCN(CC)CCC(=O)O[C@@H]1O[C@@H]2O[C@@]3(C)CC[C@H]4[C@H](C)CC[C@@H]([C@H]1C)[C@@]24OO3`, for which the pIC50 in assay [1] is 4.52; with Plasmodium falciparum [4], 7.89; in the assay on HeLa [5] it was 5.22; in the assay with Plasmodium falciparum [6], 7.87; in assay [7], less than 4.30. In addition, the “Ratio IC50” value in the assay with HeLa [2] is 5; with Plasmodium falciparum [3], 1.

For `C[C@H]1[C@@H](OC(=O)CCN2CCN(c3ccnc4cc(Cl)ccc34)CC2)O[C@@H]2O[C@@]3(C)CC[C@H]4[C@H](C)CC[C@@H]1[C@@]24OO3`, the pIC50 is 4.85 in assay [1]; 8.00 in the assay with Plasmodium falciparum [4]; 5.18 with HeLa [5]; 8.00 in the assay on Plasmodium falciparum [6]; 4.35 in assay [7]. The “Ratio IC50” value in the assay with HeLa [2] came to 4.5; with Plasmodium falciparum [3] it was 1.

On to `C=CC(=O)O[C@@H]1O[C@@H]2O[C@@]3(C)CC[C@H]4[C@H](C)CC[C@@H]([C@H]1C)[C@@]24OO3`, for which the pIC50 is 4.94 in assay [1]; 8.23 in the assay on Plasmodium falciparum [4]; 5.20 in the assay on HeLa [5]; 8.03 with Plasmodium falciparum [6]; 4.40 in assay [7]. For the same molecule, the “Ratio IC50” value in the assay with HeLa [2] is given as 4; in the assay with Plasmodium falciparum [3], 1.6.

`C[C@H]1[C@@H](OC(=O)CCNCCCCNc2ccnc3cc(Cl)ccc23)O[C@@H]2O[C@@]3(C)CC[C@H]4[C@H](C)CC[C@@H]1[C@@]24OO3`: the negative-log IC50 (pIC50) in assay [1] is 5.05; in the assay on Plasmodium falciparum [4], 7.62; in the assay with HeLa [5], 4.99; in the assay with Plasmodium falciparum [6] it was 7.56; in assay [7] it was 4.49. Besides, the “Ratio IC50” value in the assay with HeLa [2] is given as 2; in the assay on Plasmodium falciparum [3], 1.1.

For the molecule `C[C@H]1[C@H](OC(=O)CCN2CCN(C)CC2)O[C@@H]2O[C@@]3(C)CC[C@H]4[C@H](C)CC[C@@H]1[C@@]24OO3`, the pIC50 was 4.57 in assay [1]; 8.15 in the assay with Plasmodium falciparum [4]; 5.18 in the assay on HeLa [5]; 7.90 with Plasmodium falciparum [6]; less than 4.30 in assay [7]. Moreover, the “Ratio IC50” value in the assay with HeLa [2] stood at 4.1; in the assay with Plasmodium falciparum [3], 1.8.

`NCCCNc1ccnc2cc(Cl)ccc12`: in the assay with Plasmodium falciparum [3], the “Ratio IC50” value is reported as 5.2. Also, the pIC50 in the assay with Plasmodium falciparum [4] is 6.62; in the assay with HeLa [5] it was 5.01; in the assay with Plasmodium falciparum [6] it was 5.90.

Regarding `NCCCCCCNc1ccnc2cc(Cl)ccc12`, the “Ratio IC50” value in the assay with Plasmodium falciparum [3] is 0.9. Moreover, the pIC50 with Plasmodium falciparum [4] was 5.66; in the assay with HeLa [5], 4.80; in the assay on Plasmodium falciparum [6], 5.73.

Take `C[C@@H]1CC[C@H]2[C@@H](C)C(=O)O[C@@H]3O[C@@]4(C)CC[C@@H]1[C@]32OO4` [ARTEMISININ]: the “Ratio IC50” value in the assay with Plasmodium falciparum [3] came out at 1.

Consider `C[C@H]1[C@H](OC(=O)CCN2CCNCC2)O[C@@H]2O[C@@]3(C)CC[C@H]4[C@H](C)CC[C@@H]1[C@@]24OO3`, for which the pIC50 in assay [1] is 4.51; in the assay with Plasmodium falciparum [4], 8.04; with HeLa [5] it was 5.05; with Plasmodium falciparum [6], 7.80; in assay [7], less than 4.30. In addition, the “Ratio IC50” value is 3.5 in the assay with HeLa [2] and 1.7 in the assay with Plasmodium falciparum [3].

The values are drawn from ChEMBL document CHEMBL1770072, “Antiplasmodial and antitumor activity of dihydroartemisinin analogs derived via the aza-Michael addition reaction” (Bioorg Med Chem Lett, 2011).
